Where a name gives a salt, the structure may show the parent alone.

This assay deals with Trypsin (Bos taurus). Briefly: In vitro inhibition of bovine trypsin.

The compound `COS(=O)(=O)N1CCC[C@H]1C(=O)N[C@@H](CCCNC(=N)N)C(=O)c1nc2ccccc2s1` [2-[1-(Benzothiazole-2-carbonyl)-4-guanidino-butylcarbamoyl]-pyrrolidine-1-sulfonic acid methyl ester; TFA] gave an inhibitory constant (Ki) of 38 nM.

`CC(=O)N1C[C@H](O)C[C@H]1C(=O)NC(CCCN)C(=O)c1nc2ccccc2s1` (some centres not stated) [1-Acetyl-4-hydroxy-pyrrolidine-2-carboxylic acid [4-amino-1-(benzothiazole-2-carbonyl)-butyl]-amide; TFA] displayed a Ki of 16 nM.

The Ki is the equilibrium dissociation constant of an inhibitor or competing ligand from its target. A high value points to a looser hold on the target.

Values taken from BindingDB's records for doi:10.1021/jm030050p (Johnson & Johnson Pharmaceutical Research & Development, 2003).
